The source of these data is patent US12390441B2, “Immunomodulating o-het/aryl azalides” (Zoetis Services LLC, priority 2020, dated 2025).

Assay in all cases: Whole blood assay, LPS stimulation, MSD cytokine detection
Assay [1] deals with IL-1β. The format is cell-based, bovine. Conditions: fresh whole bovine blood, LPS stimulation; drug concentration giving overstimulation (OS) of IL-1β. On the procedure:
(§1) Compounds of the invention were evaluated against a positive control for their ability to inhibit LPS-induced IL-1p and TNF-α as an overall evaluation of relative potency and modulation of target pathways.
(§2) In the bovine whole blood in vitro screening assay the inhibition of TNFα as induced by stimulation by lipopolysaccharide (LPS) and as measured by half the maximal inhibitory concentration (IC50) is recognized as the primary biomarker of immunomodulation potency upon pretreatment with the compounds of the invention. IL-1β is a mediator of the inflammation response and is involved in a number of cellular activities including proliferation, differentiation and apoptosis. IL-1β is also released upon cellular stress or cytotoxicity or upon TLR stimulation. In the bovine whole blood assay the stimulation of IL-1β release upon increasing concentration of test compound is seen as a potential cellular toxicity signal as induced by the test compound. In order to estimate a therapeutic index from the in vitro assay a differential between the TNFα IC50 (immunomodulation potency) versus the perceived cellular toxicity concentration (IL-1β release or overstimulation) was utilized. […] As the in vitro assay index approaches 1 it is proposed that the balance between immunomodulation and cytotoxicity would be too narrow in order to achieve an efficacious dose in vivo.

In assay [2] the test system is TNF-α. The format is cell-based. Particulars: fresh whole bovine blood. On the procedure: as §1, §2
Assay [3] deals with IL-6. The format is cell-based. Conditions: fresh whole bovine blood.

What is called IC50 is the midpoint of a concentration-inhibition curve. Read a high IC50 as a need for much substance. Regarding `CC[C@H]1OC(=O)[C@H](C)[C@@H](O[C@H]2C[C@@](C)(OC)[C@](O)(CNC(C)C)[C@H](C)O2)[C@H](C)[C@@H](O[C@@H]2O[C@H](C)C[C@H](N(C)C)[C@H]2Oc2ccc(F)cc2)[C@](C)(O)C[C@@H](C)CN[C@H](C)[C@@H](O)[C@]1(C)O` [Example E-117], in assay [1], the “IL-1ß OS of LPS” value is 16 µM. The IC50 is 6 µM in assay [2] and 11 µM in assay [3].
As to `CC[C@H]1OC(=O)[C@H](C)[C@@H](O[C@H]2C[C@@](C)(OC)[C@](O)(CNC3CCOCC3)[C@H](C)O2)[C@H](C)[C@@H](O[C@@H]2O[C@H](C)C[C@H](N(C)C)[C@H]2Oc2ccccc2)[C@](C)(O)C[C@@H](C)CN[C@H](C)[C@@H](O)[C@]1(C)O` [Example E-120], the “IL-1ß OS of LPS” value in assay [1] was determined as 16 µM. Further, the IC50 was found to be 8 µM in assay [2] and 11 µM in assay [3].
Taken in the same sequence, the figures for `CC[C@H]1OC(=O)[C@H](C)[C@@H](O[C@H]2C[C@@](C)(OC)[C@](O)(CNC3CC3)[C@H](C)O2)[C@H](C)[C@@H](O[C@@H]2O[C@H](C)C[C@H](NC)[C@H]2Oc2ccccc2)[C@](C)(O)C[C@@H](C)CN[C@H](C)[C@@H](O)[C@]1(C)O` [Example E-125] were 16 µM, 5 µM and 8 µM.
Consider `CC[C@H]1OC(=O)[C@H](C)[C@@H](O[C@H]2C[C@@](C)(OC)[C@](O)(CNC(C)C)[C@H](C)O2)[C@H](C)[C@@H](O[C@@H]2O[C@H](C)C[C@H](NC)[C@H]2Oc2ccccc2)[C@](C)(O)C[C@@H](C)CN[C@H](C)[C@@H](O)[C@]1(C)O` [Example E-127], for which the “IL-1ß OS of LPS” value in assay [1] was determined as 40 µM. Also, the half-inhibitory concentration (IC50) in assay [2] came to 19 µM; in assay [3], 44 µM.
For `CC[C@H]1OC(=O)[C@H](C)[C@@H](O[C@H]2C[C@@](C)(OC)[C@](O)(CN(C)CCN(C)C)[C@H](C)O2)[C@H](C)[C@@H](O[C@@H]2O[C@H](C)C[C@H](NC)[C@H]2Oc2ccccc2)[C@](C)(O)C[C@@H](C)CN[C@H](C)[C@@H](O)[C@]1(C)O` [Example E-128], the “IL-1ß OS of LPS” value in assay [1] was 100 µM. For the same compound, the IC50 in assay [2] was 100 µM; in assay [3], 147 µM.
Take `CC[C@H]1OC(=O)[C@H](C)[C@@H](O[C@H]2C[C@@](C)(OC)[C@](O)(CNCCOC)[C@H](C)O2)[C@H](C)[C@@H](O[C@@H]2O[C@H](C)C[C@H](NC)[C@H]2Oc2ccccc2)[C@](C)(O)C[C@@H](C)CN[C@H](C)[C@@H](O)[C@]1(C)O` [Example E-130]: in assay [1], the “IL-1ß OS of LPS” value worked out at 40 µM. Moreover, the IC50 stood at 32 µM in assay [2] and 71 µM in assay [3].
As for `CC[C@H]1OC(=O)[C@H](C)[C@@H](O[C@H]2C[C@@](C)(OC)[C@](O)(CNCCCOC)[C@H](C)O2)[C@H](C)[C@@H](O[C@@H]2O[C@H](C)C[C@H](NC)[C@H]2Oc2ccccc2)[C@](C)(O)C[C@@H](C)CN[C@H](C)[C@@H](O)[C@]1(C)O` [Example E-131], the “IL-1ß OS of LPS” value in assay [1] is 100 µM. Besides, the IC50 came out at 35 µM in assay [2] and 52 µM in assay [3].
As for `CC[C@H]1OC(=O)[C@H](C)[C@@H](O[C@H]2C[C@@](C)(OC)[C@](O)(CNCC3CC3)[C@H](C)O2)[C@H](C)[C@@H](O[C@@H]2O[C@H](C)C[C@H](NC)[C@H]2Oc2ccccc2)[C@](C)(O)C[C@@H](C)CN[C@H](C)[C@@H](O)[C@]1(C)O` [Example E-132], the “IL-1ß OS of LPS” value in assay [1] was found to be 100 µM. Further, the results for the IC50 in assay [2] and in assay [3] were 31 µM and 60 µM, respectively.
As for `CC[C@H]1OC(=O)[C@H](C)[C@@H](O[C@H]2C[C@@](C)(OC)[C@](O)(CNn3ccnc3)[C@H](C)O2)[C@H](C)[C@@H](O[C@@H]2O[C@H](C)C[C@H](NC)[C@H]2Oc2ccccc2)[C@](C)(O)C[C@@H](C)CN[C@H](C)[C@@H](O)[C@]1(C)O` [Example E-138], the “IL-1ß OS of LPS” value in assay [1] stood at 40 µM. For the same compound, the IC50 amounted to 48 µM in assay [2] and 87 µM in assay [3].
The corresponding values for `CC[C@H]1OC(=O)[C@H](C)[C@@H](O[C@H]2C[C@@](C)(OC)[C@](O)(CNC3CCC3)[C@H](C)O2)[C@H](C)[C@@H](O[C@@H]2O[C@H](C)C[C@H](N(C)C)[C@H]2Oc2ccccc2)[C@](C)(O)C[C@@H](C)CN[C@H](C)[C@@H](O)[C@]1(C)O` [Example E-141] are 16 µM, 7 µM and 19 µM.
As for `CC[C@H]1OC(=O)[C@H](C)[C@@H](O[C@H]2C[C@@](C)(OC)[C@](O)(CNC(C)C)[C@H](C)O2)[C@H](C)[C@@H](O[C@@H]2O[C@H](C)C[C@H](N(C)C)[C@H]2Oc2ccccc2)[C@](C)(O)C[C@@H](C)CN[C@H](C)[C@@H](O)[C@]1(C)O` [Example E-142], the “IL-1ß OS of LPS” value in assay [1] worked out at 16 µM. Further, the IC50 in assay [2] worked out at 4 µM; in assay [3], 18 µM.
In the case of `CC[C@H]1OC(=O)[C@H](C)[C@@H](O[C@H]2C[C@@](C)(OC)[C@](O)(CN(C)CCN(C)C)[C@H](C)O2)[C@H](C)[C@@H](O[C@@H]2O[C@H](C)C[C@H](N(C)C)[C@H]2Oc2ccccc2)[C@](C)(O)C[C@@H](C)CN[C@H](C)[C@@H](O)[C@]1(C)O` [Example E-143], the “IL-1ß OS of LPS” value in assay [1] stood at 40 µM. In addition, the IC50 in assay [2] was determined as 34 µM; in assay [3], 86 µM.
As to `CC[C@H]1OC(=O)[C@H](C)[C@@H](O[C@H]2C[C@@](C)(OC)[C@](O)(CNCCN(C)C)[C@H](C)O2)[C@H](C)[C@@H](O[C@@H]2O[C@H](C)C[C@H](N(C)C)[C@H]2Oc2ccccc2)[C@](C)(O)C[C@@H](C)CN[C@H](C)[C@@H](O)[C@]1(C)O` [Example E-144], the “IL-1ß OS of LPS” value in assay [1] is 40 µM. Further, the IC50 was 8 µM in assay [2] and 87 µM in assay [3].
For the compound `CC[C@H]1OC(=O)[C@H](C)[C@@H](O[C@H]2C[C@@](C)(OC)[C@](O)(CNCCOC)[C@H](C)O2)[C@H](C)[C@@H](O[C@@H]2O[C@H](C)C[C@H](N(C)C)[C@H]2Oc2ccccc2)[C@](C)(O)C[C@@H](C)CN[C@H](C)[C@@H](O)[C@]1(C)O` [Example E-145], the “IL-1ß OS of LPS” value in assay [1] is greater than 250 µM. Besides, the IC50 in assay [2] is 17 µM; in assay [3] it was 42 µM.
In the case of `CC[C@H]1OC(=O)[C@H](C)[C@@H](O[C@H]2C[C@@](C)(OC)[C@](O)(CNCCCOC)[C@H](C)O2)[C@H](C)[C@@H](O[C@@H]2O[C@H](C)C[C@H](N(C)C)[C@H]2Oc2ccccc2)[C@](C)(O)C[C@@H](C)CN[C@H](C)[C@@H](O)[C@]1(C)O` [Example E-146], in assay [1], the “IL-1ß OS of LPS” value was 40 µM. Moreover, the IC50 in assay [2] was 12 µM; in assay [3], 45 µM.
Consider `CCCNC[C@]1(O)[C@H](C)O[C@@H](O[C@H]2[C@H](C)[C@@H](O[C@@H]3O[C@H](C)C[C@H](N(C)Cc4ccc(OC)cc4)[C@H]3Oc3ccccc3)[C@](C)(O)C[C@@H](C)CN[C@H](C)[C@@H](O)[C@](C)(O)[C@@H](CC)OC(=O)[C@@H]2C)C[C@@]1(C)OC` [Example E-147], for which the “IL-1ß OS of LPS” value in assay [1] came to 4 µM. The IC50 in assay [2] worked out at 6 µM; in assay [3], 5 µM.
Taken in the same sequence, the figures for `CCCNC[C@]1(O)[C@H](C)O[C@@H](O[C@H]2[C@H](C)[C@@H](O[C@@H]3O[C@H](C)C[C@H](N(C)Cc4ccccc4)[C@H]3Oc3ccccc3)[C@](C)(O)C[C@@H](C)CN[C@H](C)[C@@H](O)[C@](C)(O)[C@@H](CC)OC(=O)[C@@H]2C)C[C@@]1(C)OC` [Example E-148] were 1 µM, 2 µM and 1 µM.
